Test results from patent US6462055B2, “Alpha-methylbenzyl-containing thiourea inhibitors of herpes viruses containing a phenylenediamine group” (Wyeth, priority 1998, dated 2002).
In brackets after ≈: the same amount, converted by molar mass.

Assays:
[1] = tested on: HCMV recombinant mutant virus (RV145); test: microbe, parasite or virus in culture; assay type: cell-based, human cytomegalovirus; conditions: for IC50: Human betaherpesvirus 5, read-out: IC50 ug/ml HCMV, HCMV
Outline: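 Read-out is beta-glucuronidase activity in cell lysates 96 h after infection, measured colorimetrically or fluorometrically. Reporter virus RV145 expresses the enzyme under a viral promoter in human foreskin fibroblasts treated with inhibitor.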

HSV-1 = test: HSV Antiviral (ELISA) Assay in Vero cells; assay type: cell-based, herpes simplex virus type 1; conditions: HSV-1, Vero cells; for IC50: Human alphaherpesvirus 1, read-out: IC50 (ug/ml) HSV
Outline: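 Viral replication was quantified by cell-fixed ELISA for HSV glycoprotein D, using a β-galactosidase reporter and fluorogenic umbelliferyl substrate, about 24 h after HSV-1 infection (MOI 0.006) of Vero cells. Compounds, at several concentrations, were added 30 min pre-infection. IC50 was derived from fluorescence relative to the compound-free signal.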

VZV strain Ellen = test: VZV Antiviral (ELISA) Assay in human foreskin fibroblast cells; assay type: cell-based, varicella-zoster virus; conditions: for IC50: read-out: IC50 (ug/ml) VZV
Outline: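 HFF cells infected with VZV Ellen at low multiplicity (<0.1) overnight were seeded at 3.5×10^4 cells/well in DMEM with 2% FBS plus compound and incubated three days at 37° C., 5% CO2. Viral replication was read by ELISA against glycoprotein II with β-galactosidase fluorogenic readout (ex 365/em 450 nm); IC50 relative to no-compound fluorescence.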

[2] = Human alphaherpesvirus 3, Fibroblast

CC(C)C(NC(=S)Nc1ccc(NC(=O)c2ccccc2F)cc1)c1ccc(F)cc1 (stereo not drawn) [Example 790]
IC50 ug/ml HCMV [1]: 1.5 µg/mL (≈ 3.41 µM)
IC50 (ug/ml) HSV (HSV-1): >10 µg/mL
IC50 (ug/ml) VZV (VZV strain Ellen): 2.5 µg/mL (≈ 5.69 µM)

Cc1ccc(NC(=S)Nc2ccc(NC(=O)c3c(F)cccc3F)cc2)cc1Cl [Example 235]
IC50 ug/ml HCMV [1]: >10 µg/mL
IC50 (ug/ml) HSV (HSV-1): 0.2 µg/mL (≈ 0.463 µM)
IC50 (ug/ml) VZV (VZV strain Ellen): >10 µg/mL
% inhibition 10 ug/ml VZV (VZV strain Ellen): 50%

N-{4-[3-(3-Butylsulfonyl-phenyl)-thioureido]-phenyl}-2-fluoro-benzamide [Example 966]
IC50 ug/ml HCMV [1]: 2.5 µg/mL
IC50 (ug/ml) HSV (HSV-1): 7 µg/mL
IC50 (ug/ml) VZV (VZV strain Ellen): 8 µg/mL
% inhibition 10 ug/ml VZV (VZV strain Ellen): 95%

COc1cc(OC)c(NC(=S)Nc2ccc(NC(=O)c3c(F)c(F)c(F)c(F)c3F)cc2)cc1Cl [Example 193]
IC50 ug/ml HCMV [1]: >10 µg/mL
IC50 (ug/ml) HSV (HSV-1): 1.5 µg/mL (≈ 2.82 µM)
IC50 (ug/ml) VZV (VZV strain Ellen): 3.8 µg/mL (≈ 7.14 µM)
% inhibition 10 ug/ml VZV (VZV strain Ellen): 106%

COc1cc(OC)c(NC(=S)Nc2ccc(NC(=O)c3cccc4c3OCO4)cc2)cc1Cl [Example 255]
IC50 ug/ml HCMV [1]: >10 µg/mL
IC50 (ug/ml) HSV (HSV-1): 1.2 µg/mL (≈ 2.47 µM)
IC50 (ug/ml) VZV (VZV strain Ellen): >10 µg/mL
% inhibition 10 ug/ml VZV (VZV strain Ellen): 0%

COc1cc(OC)c(NC(=S)Nc2ccc(NC(=O)c3ccccc3[N+](=O)[O-])cc2)cc1Cl [Example 143]
IC50 ug/ml HCMV [1]: > 10 µg/mL
IC50 (ug/ml) HSV (HSV-1): 1 µg/mL (≈ 2.05 µM)
IC50 (ug/ml) VZV (VZV strain Ellen): >15 µg/mL
% inhibition 10 ug/ml VZV (VZV strain Ellen): 68%

O=C(O)c1cccc(NC(=S)Nc2ccc(NC(=O)c3ccccc3F)cc2)c1 [Example 963, 3-{3-[4-(2-Fluoro-benzoylamino)-phenyl]-thioureido}-benzoic acid]
IC50 [1]: > 10 µg/mL
IC50 (HSV-1): > 10 µg/mL
inhibition at 10 µg/mL (VZV strain Ellen; Human alphaherpesvirus 3, Fibroblast, read-out: % inhibition 10 ug/ml VZV, 10 ug/ml): 30%
IC50 (VZV strain Ellen; [2]): > 10 µg/mL

CC(NC(=S)Nc1ccc(NC(=O)c2ccccc2F)cc1)c1cccc(N(C)C)c1 (stereo not drawn) [Example 794]
IC50 ug/ml HCMV [1]: 6.2 µg/mL (≈ 14.2 µM)
IC50 (ug/ml) HSV (HSV-1): 7 µg/mL (≈ 16 µM)
IC50 (ug/ml) VZV (VZV strain Ellen): 0.4 µg/mL (≈ 0.916 µM)

CN(C)c1ccc(Cl)cc1NC(=S)Nc1ccc(NC(=O)c2ccccc2F)cc1 [Example 490]
IC50 ug/ml HCMV [1]: 2.5 µg/mL (≈ 5.64 µM)
IC50 (ug/ml) HSV (HSV-1): 1 µg/mL (≈ 2.26 µM)
IC50 (ug/ml) VZV (VZV strain Ellen): >10 µg/mL
% inhibition 10 ug/ml VZV (VZV strain Ellen): 68%

CCCCOc1ccc(NC(=S)Nc2ccc(NC(=O)c3ccccc3F)cc2)cc1Cl [Example 809]
IC50 ug/ml HCMV [1]: >10 µg/mL
IC50 (ug/ml) HSV (HSV-1): >10 µg/mL
IC50 (ug/ml) VZV (VZV strain Ellen): >7.5 µg/mL

CS(=O)(=O)c1ccc(NC(=S)Nc2ccc(NC(=O)c3c(F)cccc3F)cc2)cc1Cl [Example 392]
IC50 ug/ml HCMV [1]: 0.5 µg/mL (≈ 1.01 µM)
IC50 (ug/ml) HSV (HSV-1): >10 µg/mL
IC50 (ug/ml) VZV (VZV strain Ellen): 2 µg/mL (≈ 4.03 µM)
% inhibition 10 ug/ml VZV (VZV strain Ellen): 92%

COc1cc(OC)c(NC(=S)Nc2ccc(NC(=O)c3ccc(F)cc3)cc2)cc1Cl [Example 116]
IC50 ug/ml HCMV [1]: 3 µg/mL (≈ 6.52 µM)
IC50 (ug/ml) HSV (HSV-1): 2 µg/mL (≈ 4.35 µM)
IC50 (ug/ml) VZV (VZV strain Ellen): >10 µg/mL
% inhibition 10 ug/ml VZV (VZV strain Ellen): 0%

CC(C)Oc1ccc(NC(=S)Nc2ccc(NC(=O)c3ccccc3F)cc2)cc1Cl [Example 808]
IC50 ug/ml HCMV [1]: >10 µg/mL
IC50 (ug/ml) HSV (HSV-1): >10 µg/mL
IC50 (ug/ml) VZV (VZV strain Ellen): >7.5 µg/mL

CCOC(=O)Nc1cccc(C(=O)Nc2ccc(NC(=S)Nc3cc(Cl)c(OC)cc3OC)cc2)c1 [Example 180]
IC50 ug/ml HCMV [1]: 1.5 µg/mL (≈ 2.84 µM)
IC50 (ug/ml) HSV (HSV-1): 1.3 µg/mL (≈ 2.46 µM)
IC50 (ug/ml) VZV (VZV strain Ellen): >10 µg/mL
% inhibition 10 ug/ml VZV (VZV strain Ellen): 36%

CN(C)c1cc(CNC(=S)Nc2ccc(NC(=O)c3ccccc3F)cc2)cc(C(F)(F)F)c1 [Example 636]
IC50 ug/ml HCMV [1]: >10 µg/mL
IC50 (ug/ml) HSV (HSV-1): >10 µg/mL
IC50 (ug/ml) VZV (VZV strain Ellen): 5 µg/mL (≈ 10.2 µM)

CC(NC(=S)Nc1ccc(NC(=O)c2ccccc2F)cc1)c1ccc(F)cc1 (stereo not drawn) [Example 591]
IC50 [1]: 7 µg/mL (≈ 17 µM)
IC50 (HSV-1): > 10 µg/mL
IC50 (VZV strain Ellen; [2]): 1.5 µg/mL (≈ 3.65 µM)

COc1cc(OC)c(NC(=S)Nc2ccc(NC(=O)c3ccccc3NC(C)=O)cc2)cc1Cl [Example 189]
IC50 ug/ml HCMV [1]: >10 µg/mL
IC50 (ug/ml) HSV (HSV-1): 2.5 µg/mL (≈ 5.01 µM)
IC50 (ug/ml) VZV (VZV strain Ellen): >10 µg/mL
% inhibition 10 ug/ml VZV (VZV strain Ellen): 59%

CC(NC(=S)Nc1ccc(NC(=O)c2ccccc2F)cc1)c1ccccc1Cl (stereo not drawn) [Example 784]
IC50 ug/ml HCMV [1]: 1.1 µg/mL (≈ 2.57 µM)
IC50 (ug/ml) HSV (HSV-1): >10 µg/mL
IC50 (ug/ml) VZV (VZV strain Ellen): 0.7 µg/mL (≈ 1.64 µM)

CN(C)c1cccc(NC(=S)Nc2ccc(NC(=O)c3ccccc3F)cc2)c1 [Example 454]
IC50 ug/ml HCMV [1]: 4 µg/mL (≈ 9.79 µM)
IC50 (ug/ml) HSV (HSV-1): 1.5 µg/mL (≈ 3.67 µM)
IC50 (ug/ml) VZV (VZV strain Ellen): >10 µg/mL
% inhibition 10 ug/ml VZV (VZV strain Ellen): 55%

Nc1c(Cl)cccc1NC(=S)Nc1ccc(NC(=O)c2c(F)cccc2F)cc1 [Example 465]
IC50 ug/ml HCMV [1]: >10 µg/mL
IC50 (ug/ml) HSV (HSV-1): >10 µg/mL
IC50 (ug/ml) VZV (VZV strain Ellen): >10 µg/mL
% inhibition 10 ug/ml VZV (VZV strain Ellen): 31%

CC(NC(=S)Nc1ccc(NC(=O)c2ccccc2Cl)cc1)c1ccc(F)cc1 (stereo not drawn) [Example 755]
IC50 ug/ml HCMV [1]: >10 µg/mL
IC50 (ug/ml) HSV (HSV-1): >10 µg/mL
IC50 (ug/ml) VZV (VZV strain Ellen): 7 µg/mL (≈ 16.4 µM)

Cc1ccccc1C(=O)Nc1ccc(NC(=S)Nc2ccc(N(C)C3CCN(Cc4ccccc4)C3)c(Cl)c2)cc1 (stereo not drawn) [Example 374]
IC50 ug/ml HCMV [1]: 3 µg/mL (≈ 5.14 µM)
IC50 (ug/ml) HSV (HSV-1): 3 µg/mL (≈ 5.14 µM)
IC50 (ug/ml) VZV (VZV strain Ellen): 4 µg/mL (≈ 6.85 µM)
% inhibition 10 ug/ml VZV (VZV strain Ellen): 70%

CC(NC(=S)Nc1ccc(NC(=O)c2ccc(F)cc2)cc1)c1ccc(F)cc1 (stereo not drawn) [Example 801]
IC50 [1]: > 10 µg/mL
IC50 (HSV-1): > 10 µg/mL
IC50 (VZV strain Ellen; [2]): > 7.5 µg/mL

O=C(Nc1ccc(NC(=S)NC(Cc2ccccc2)c2ccc(F)cc2)cc1)c1ccccc1F (stereo not drawn) [Example 774]
IC50 ug/ml HCMV [1]: 0.5 µg/mL (≈ 1.03 µM)
IC50 (ug/ml) HSV (HSV-1): >10 µg/mL
IC50 (ug/ml) VZV (VZV strain Ellen): >7.5 µg/mL

CSc1ccc(NC(=S)Nc2ccc(NC(=O)c3ccccc3C)cc2)cc1Cl [Example 342]
IC50 ug/ml HCMV [1]: 1.4 µg/mL (≈ 3.17 µM)
IC50 (ug/ml) HSV (HSV-1): 0.2 µg/mL (≈ 0.452 µM)
IC50 (ug/ml) VZV (VZV strain Ellen): >10 µg/mL
% inhibition 10 ug/ml VZV (VZV strain Ellen): 62%

O=C(Nc1ccc(NC(=S)NCc2ccc(Cl)c(Cl)c2)cc1)c1ccccc1F [Example 538]
IC50 ug/ml HCMV [1]: >10 µg/mL
IC50 (ug/ml) HSV (HSV-1): >10 µg/mL
IC50 (ug/ml) VZV (VZV strain Ellen): 10 µg/mL (≈ 22.3 µM)
